Reference: patent publication US20220281866A1, “5,8-DISUBSTITUTED-[1,2,4]TRIAZOLO[1,5-A]PYRIDINYL AND 5,8-DISUBSTITUTED-IMIDAZO[1,2-A]PYRIDINE DERIVATIVES USEFUL AS INHIBITORS OF ENTEROPEPTIDASE” (Janssen Pharmaceutica NV, priority 2019, published 2022)
Each block holds one compound with its values, some of them ahead of it.

Tests used:
[1] = target: T1, Recombinant full-length human EP (Enteropeptidase) (Homo sapiens, UniProt P98073); assay: In vitro inhibition potencies against Enteropeptidase (EP), fluorescent peptide GDDDDK-naphthylamine substrate; format: biochemical; conditions: 300 μM substrate, 1.25 nM EP; for inhibition at 0.1 µM: compound 0.1 μM; for inhibition at 1 µM: compound 1 μM; for inhibition at 10 µM: compound 10 μM; for kinact/KI: 12-point dose-dependence, time-dependent inhibition, duplicate dilutions, read-out: kinact/KI^App
T1 construct: Recombinant full-length human EP (PeproTech, Cat #450-48C); purchased PeproTech 450-48C
T1 sequence (P98073 whole entry): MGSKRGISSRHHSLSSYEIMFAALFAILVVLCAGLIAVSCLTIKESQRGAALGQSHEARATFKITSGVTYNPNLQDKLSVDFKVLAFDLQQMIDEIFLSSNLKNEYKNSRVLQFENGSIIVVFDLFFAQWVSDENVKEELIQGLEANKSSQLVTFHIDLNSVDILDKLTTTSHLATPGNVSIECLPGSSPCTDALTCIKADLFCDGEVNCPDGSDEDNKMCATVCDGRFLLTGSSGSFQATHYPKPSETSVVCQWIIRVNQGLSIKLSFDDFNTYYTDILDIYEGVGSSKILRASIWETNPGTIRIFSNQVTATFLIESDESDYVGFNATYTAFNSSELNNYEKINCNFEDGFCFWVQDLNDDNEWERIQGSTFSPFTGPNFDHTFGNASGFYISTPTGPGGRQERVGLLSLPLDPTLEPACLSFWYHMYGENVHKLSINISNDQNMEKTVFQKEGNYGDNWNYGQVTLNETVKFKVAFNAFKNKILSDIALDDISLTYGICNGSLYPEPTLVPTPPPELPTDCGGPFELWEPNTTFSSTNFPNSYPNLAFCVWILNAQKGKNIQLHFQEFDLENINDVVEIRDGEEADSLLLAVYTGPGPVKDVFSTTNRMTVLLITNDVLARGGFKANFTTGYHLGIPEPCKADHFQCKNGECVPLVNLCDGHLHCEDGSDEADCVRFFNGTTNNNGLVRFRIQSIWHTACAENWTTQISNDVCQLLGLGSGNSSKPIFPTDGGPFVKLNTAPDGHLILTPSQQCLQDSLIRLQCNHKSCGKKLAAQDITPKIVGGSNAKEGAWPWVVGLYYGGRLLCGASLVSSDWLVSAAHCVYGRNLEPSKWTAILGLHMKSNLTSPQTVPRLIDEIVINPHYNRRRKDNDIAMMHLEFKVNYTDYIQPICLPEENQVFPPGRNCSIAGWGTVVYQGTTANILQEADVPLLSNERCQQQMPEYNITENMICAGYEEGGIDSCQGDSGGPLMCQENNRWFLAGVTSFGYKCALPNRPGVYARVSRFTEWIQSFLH
Procedure: In vitro inhibition potencies against Enteropeptidase (EP) Recombinant full-length human EP (PeproTech, Cat #450-48C) was used in this biochemical assay, with a quenched fluorescent labeled peptide GDDDDK-naphthylamine (NA) (Sigma, Cat #G5261) as the substrate in a buffer of 50 mM Tris-HCl pH 7.4, 200 mM NaCl and 0.01% Triton X-100. The enzyme activity was measured by following the formation of the cleavage product […](NA) by monitoring the fluorescence intensity (FI) at excitation/emission wavelengths of 340/410 nm. The steady-state kinetic characterization studies yielded an average of KM to be 412±22 μM and the apparent turnover number kcat^app of 11.8±0.4 s^−1 (N=2).
Compound inhibition studies were carried out under the conditions of 300 μM substrate and 1.25 nM EP. Reaction progress curves were collected by reading the FI at 340/410 nm continuously for 1 hour at an interval of 1 minute.
To screen compounds of formula (I), inhibition was studied at 4 different compound concentrations of 10 μM, 1 μM, 0.1 μM and 0.01 μM. Initial velocity of the reaction was determined, and percent of inhibition was calculated by comparing to the reaction in the absence of compound.
Accurate measurements of the inhibition potencies of selected compounds were studied in a 12-point dose-dependence fashion. […] Compound potency was measured by determining the inactivation rate constant (kobs) following the reaction change from the initial velocity vi to the steady-state velocity vs at various compound concentrations. The inactivation rate constants (kobs), were derived by fitting the reaction progress curves to eq. 1.
where YT is the detection signal of the reaction at time t, vi and vs are the initial and the steady-state velocities of the reaction, t is the reaction time. Y0 is the background signal (when t=0).
Compound binding mechanism was shown by plotting kobs˜[compound]. Hyperbolic fitting to eq. 2
conforms to a two-step binding mechanism as shown in Scheme BIO-1.
The plateau of the curve is the forward step rate constant of the isomerization step k3, KI^app is the inhibitor concentration that leads to half-maximal rate of inhibition of enzyme under the assay conditions. Compound inhibition potency was reported by the value of k3/KI^app.
A linear dependence of eq.3
indicates a one-step binding mechanism as shown in Scheme BIO-2
Slope of the linear fit gives the second-order rate constant of the compound binding k1, which is used to represent the compound inhibition potency.
(§1) Representative compounds of the present invention were tested according to the procedures as described in Biological Example 1 and Biological Example 2 above, with results as listed in Table 2 and Table 3, below. Results are reported as the %-inhibition (% Inh) or Kinact/KI value. Variability for the functional assay was typically within 20%. For the column headed Kinact/KI the listed measurement is the result of duplicate dilutions.

Bovine trypsin = target: T2, Bovine trypsin (Bos taurus, UniProt P00760); assay: Biochemical Assay of Trypsin (T), H-D-CHA-AR-AMC substrate; conditions: 15 μM substrate, 0.025 nM Trypsin; for inhibition at 0.1 µM: compound 0.1 μM; for inhibition at 1 µM: compound 1 μM; for inhibition at 10 µM: compound 10 μM; for kinact/KI: 12-point dose-dependence, time-dependent inhibition, duplicate dilutions, read-out: Kinact/KI^App
T2 construct: purchased Sigma-Aldrich T1426
T2 sequence (P00760 24-246): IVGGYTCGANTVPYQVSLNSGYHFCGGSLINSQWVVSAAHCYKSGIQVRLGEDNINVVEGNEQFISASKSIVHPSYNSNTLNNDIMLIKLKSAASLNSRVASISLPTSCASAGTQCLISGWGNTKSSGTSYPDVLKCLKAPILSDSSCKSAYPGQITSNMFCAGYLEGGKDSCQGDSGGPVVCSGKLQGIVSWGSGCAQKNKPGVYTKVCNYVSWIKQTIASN
Procedure: Bovine trypsin was purchased from Sigma-Aldrich (Cat No. T1426), and 7-amino-4-methylcoumarin (AMC) conjugated peptide H-D-cyclohexylalanine (D-CHA)-AR-AMC was used as the substrate in the assay. The protease activity of trypsin was followed by measuring AMC production by the emission fluorescence intensity of AMC at 460 nm with the excitation at 375 nm, in the same assay buffer as used in the EP assay. The enzyme kinetic characterization studies yielded an average of KM to be 3.9±0.5 μM and the apparent turnover number kcat^app of 33.8±0.4 s^−1 (N=2).
Studies of compound inhibition against T were carried out under the conditions of 15 μM substrate and 0.025 nM Trypsin. Reaction progress curves were collected by reading the FI at 375/460 nm continuously for 1 hour at an interval of 1 minute. Similar to the procedure for Enteropeptidase described above, compounds of formula (I) were screened against Trypsin at 4 different concentrations to obtain the percent of inhibition at 10 μM, 1 μM, 0.1 μM and 0.01 μM, and accurate potencies of selected compounds against Trypsin were derived from detailed 12-point dose-dependence studies for time-dependent inhibitors.
as §1

Compound: N=C(N)Nc1ccc(C(=O)Oc2cc(CC(=O)O)cn3ncnc23)cc1 [Compound 26, 2-(8-(4-guanidinobenzoyloxy)-[1,2,4]triazolo[1,5-a]pyridin-6-yl)acetic acid]
inhibition at 0.1 µM [1]: 13.2%
inhibition at 1 µM [1]: 58.8%
inhibition at 10 µM [1]: 101%
inhibition at 0.1 µM (Bovine trypsin): 81.7%
inhibition at 1 µM (Bovine trypsin): 100%
inhibition at 10 µM (Bovine trypsin): 100%

Compound: N=C(N)Nc1ccc(C(=O)Oc2ccc(CC(=O)O)n3ncnc23)cc1O [Compound 23, 2-(8-(4-guanidino-3-hydroxybenzoyloxy)-[1,2,4]triazolo[1,5-a]pyridin-5-yl)acetic acid]
inhibition at 0.1 µM [1]: 34.3%
inhibition at 1 µM [1]: 92.1%
inhibition at 10 µM [1]: 101%
inhibition at 0.1 µM (Bovine trypsin): 12.4%
inhibition at 1 µM (Bovine trypsin): 73.1%
inhibition at 10 µM (Bovine trypsin): 100%

Compound: COc1cc(C(=O)Oc2ccc(CC(=O)O)n3ncnc23)ccc1NC(=N)N [Compound 12, 2-(8-(4-guanidino-3-methoxybenzoyloxy)-[1,2,4]triazolo[1,5-a]pyridin-5-yl)acetic acid]
inhibition at 0.1 µM [1]: 20.8%
inhibition at 1 µM [1]: 87.1%
inhibition at 10 µM [1]: 101%
inhibition at 0.1 µM (Bovine trypsin): 13.8%
inhibition at 1 µM (Bovine trypsin): 72.4%
inhibition at 10 µM (Bovine trypsin): 99.9%

Compound: N=C(N)Nc1ccc(C(=O)Oc2ccc(CC(=O)O)n3ccnc23)cc1 [Compound 9, 2-(8-(4-guanidinobenzoyloxy)imidazo[1,2-a]pyridin-5-yl)acetic acid]
kinact/KI [1]: 210000 M⁻¹ s⁻¹
inhibition at 0.1 µM [1]: 101%
inhibition at 1 µM [1]: 100%
inhibition at 10 µM [1]: 100%
kinact/KI (Bovine trypsin): 111000 M⁻¹ s⁻¹
inhibition at 0.1 µM (Bovine trypsin): 96.3%
inhibition at 1 µM (Bovine trypsin): 101%
inhibition at 10 µM (Bovine trypsin): 101%

Compound: N=C(N)Nc1ccc(C(=O)Oc2ccc(CC(=O)O)n3ncnc23)cc1 [Compound 1, 2-{8-[(4-carbamimidamidophenyl)carbonyloxy]-[1,2,4]triazolo[1,5-a]pyridin-5-yl}acetic acid]
kinact/KI [1]: 130000 M⁻¹ s⁻¹
inhibition at 0.1 µM [1]: 97.8%
inhibition at 1 µM [1]: 100%
inhibition at 10 µM [1]: 100%
kinact/KI (Bovine trypsin): 159000 M⁻¹ s⁻¹
inhibition at 0.1 µM (Bovine trypsin): 97.2%
inhibition at 1 µM (Bovine trypsin): 100%
inhibition at 10 µM (Bovine trypsin): 100%

Compound: N=C(N)Nc1ccc(C(=O)Oc2ccc(CCC(=O)O)n3ncnc23)cc1 [Compound 3, 3-(8-(4-guanidinobenzoyloxy)-[1,2,4]triazolo[1,5-a]pyridin-5-yl)propanoic acid]
inhibition at 0.1 µM [1]: 35%
inhibition at 1 µM [1]: 101%
inhibition at 10 µM [1]: 100%
inhibition at 0.1 µM (Bovine trypsin): 99.8%
inhibition at 1 µM (Bovine trypsin): 100%
inhibition at 10 µM (Bovine trypsin): 100%

Compound: N=C(N)Nc1ccc(C(=O)Oc2ccc(CC(=O)NC(CC(=O)O)C(=O)O)n3ncnc23)cc1 (stereo not shown) [Compound 5, 2-(2-(8-(4-guanidinobenzoyloxy)-[1,2,4]triazolo[1,5-a]pyridin-5-yl)acetamido)succinic acid]
inhibition at 0.1 µM [1]: 48.3%
inhibition at 1 µM [1]: 101%
inhibition at 10 µM [1]: 100%
inhibition at 0.1 µM (Bovine trypsin): 98.3%
inhibition at 1 µM (Bovine trypsin): 100%
inhibition at 10 µM (Bovine trypsin): 100%

Compound: N=C(N)Nc1ccc(C(=O)Oc2ccc(CC(=O)O)n3ncnc23)cc1I [Compound 13, 2-(8-(4-guanidino-3-iodobenzoyloxy)-[1,2,4]triazolo[1,5-a]pyridin-5-yl)acetic acid]
inhibition at 0.1 µM [1]: -1.5%
inhibition at 1 µM [1]: 15.8%
inhibition at 10 µM [1]: 65%
inhibition at 0.1 µM (Bovine trypsin): 0.9%
inhibition at 1 µM (Bovine trypsin): 7.6%
inhibition at 10 µM (Bovine trypsin): 45%

Compound: N#Cc1cc(C(=O)Oc2ccc(CC(=O)O)n3ncnc23)ccc1NC(=N)N [Compound 22, 2-(8-(3-cyano-4-guanidinobenzoyloxy)-[1,2,4]triazolo[1,5-a]pyridin-5-yl)acetic acid]
inhibition at 0.1 µM [1]: -3%
inhibition at 1 µM [1]: -6.3%
inhibition at 10 µM [1]: 32.1%
inhibition at 0.1 µM (Bovine trypsin): 0.9%
inhibition at 1 µM (Bovine trypsin): 12.3%
inhibition at 10 µM (Bovine trypsin): 29.9%

The next lines start with the values.

inhibition at 0.1 µM [1]: 15.3%
inhibition at 1 µM [1]: 80.1%
inhibition at 10 µM [1]: 97.9%
inhibition at 0.1 µM (Bovine trypsin): 9.6%
inhibition at 1 µM (Bovine trypsin): 57.1%
inhibition at 10 µM (Bovine trypsin): 97.7%
Compound: CNC(=N)Nc1ccc(C(=O)Oc2ccc(CC(=O)O)n3ncnc23)cc1 [Compound 34, 2-(8-(4-(3-methylguanidino)benzoyloxy)-[1,2,4]triazolo[1,5-a]pyridin-5-yl)acetic acid]

inhibition at 0.1 µM [1]: 95.3%
inhibition at 1 µM [1]: 99.4%
inhibition at 10 µM [1]: 100%
inhibition at 0.1 µM (Bovine trypsin): 95.8%
inhibition at 1 µM (Bovine trypsin): 99.7%
inhibition at 10 µM (Bovine trypsin): 100%
Compound: N=C(N)Nc1ncc(C(=O)Oc2ccc(CC(=O)O)n3ccnc23)cn1 [Compound 29, 2-(8-(2-guanidinopyrimidine-5-carbonyloxy)imidazo[1,2-a]pyridin-5-yl)acetic acid]

inhibition at 0.1 µM [1]: 0.5%
inhibition at 1 µM [1]: 12.2%
inhibition at 10 µM [1]: 51.8%
inhibition at 0.1 µM (Bovine trypsin): 1.6%
inhibition at 1 µM (Bovine trypsin): 2.8%
inhibition at 10 µM (Bovine trypsin): 25.5%
Compound: N=C(NN)c1ccc(C(=O)Oc2ccc(CC(=O)O)n3ncnc23)cc1 [Compound 39, 2-(8-(4-(hydrazinyl(imino)methyl)benzoyloxy)-[1,2,4]triazolo[1,5-a]pyridin-5-yl)acetic acid]

inhibition at 0.1 µM [1]: 2.4%
inhibition at 1 µM [1]: 9.1%
inhibition at 10 µM [1]: 34%
inhibition at 0.1 µM (Bovine trypsin): -3.1%
inhibition at 1 µM (Bovine trypsin): -3.3%
inhibition at 10 µM (Bovine trypsin): 18.2%
Compound: CONC(=N)c1ccc(C(=O)Oc2ccc(CC(=O)O)n3ncnc23)cc1 [Compound 36, 2-(8-(4-(N-methoxycarbamimidoyl)benzoyloxy)-[1,2,4]triazolo[1,5-a]pyridin-5-yl)acetic acid]

inhibition at 0.1 µM [1]: 92.1%
inhibition at 1 µM [1]: 99.5%
inhibition at 10 µM [1]: 100%
inhibition at 0.1 µM (Bovine trypsin): 96.5%
inhibition at 1 µM (Bovine trypsin): 100%
inhibition at 10 µM (Bovine trypsin): 100%
Compound: CS(=O)(=O)NC(=O)Cc1ccc(OC(=O)c2cnc(NC(=N)N)nc2)c2ncnn12 [Compound 30, 5-(2-(methylsulfonamido)-2-oxoethyl)-[1,2,4]triazolo[1,5-a]pyridin-8-yl 2-guanidinopyrimidine-5-carboxylate]

inhibition at 0.1 µM [1]: 88.6%
inhibition at 1 µM [1]: 98.5%
inhibition at 10 µM [1]: 99.9%
inhibition at 0.1 µM (Bovine trypsin): 97.8%
inhibition at 1 µM (Bovine trypsin): 99.9%
inhibition at 10 µM (Bovine trypsin): 100%
Compound: N=C(N)Nc1ncc(C(=O)Oc2ccc(CC(=O)NC(CC(=O)O)C(=O)O)n3ncnc23)cn1 (stereo not shown) [Compound 28, 2-(2-(8-(2-guanidinopyrimidine-5-carbonyloxy)-[1,2,4]triazolo[1,5-a]pyridin-5-yl)acetamido)succinic acid]

inhibition at 0.1 µM [1]: 81.2%
inhibition at 1 µM [1]: 100%
inhibition at 10 µM [1]: 100%
inhibition at 0.1 µM (Bovine trypsin): 99.3%
inhibition at 1 µM (Bovine trypsin): 100%
inhibition at 10 µM (Bovine trypsin): 100%
Compound: N=C(N)Nc1ccc(C(=O)Oc2ccc(CC(=O)NC(CC(=O)O)C(=O)O)n3ccnc23)cc1 (stereo not shown) [Compound 27, 2-(2-(8-(4-guanidinobenzoyloxy)imidazo[1,2-a]pyridin-5-yl)acetamido)succinic acid]
